# Experimental data published in paper PMC7899551, “Phase 1 study of Z-endoxifen in patients with advanced gynecologic, desmoid, and hormone receptor-positive solid tumors” (Oncotarget, 2021).
# Experiment: Safety: adverse events (CTCAE v4.0), DLT, MTD
# Assay type: in vivo
# Method: This was an open-label trial of Z-endoxifen in patients with advanced solid tumors (https://clinicaltrials.gov/ identifier: NCT01273168). Z-endoxifen-HCl was supplied by the Pharmaceutical Management Branch, National Cancer Institute, as 20 and 40 mg capsules; agent was administered orally once daily on a continuous schedule in 28-day cycles with a starting dose of 20 mg/day taken either 1 hour before or 2 hours after meals. Dose escalation followed a traditional 3+3 design in which patients were dose-escalated to the next dose level (DL) in cohorts of 3 patients until dose-limiting toxicity (DLT) was observed. […] Eight dose levels (DL1-8) were examined: 20, 40, 60, 100, 140, 200, 280, and 360 mg, respectively. Two patients at DL8 received the free base form of Z-endoxifen on day 1 rather than the hydrochloride salt to assess the pharmacokinetics of that formulation.
# Toxicities were graded using Common Terminology Criteria for Adverse Events (CTCAE) version 4.0. Toxicities were required to resolve to grade 2 or below prior to initiation of the next cycle. Occurrence of a DLT was to result in a dose reduction following resolution to grade ≤ 2. No more than 2 dose reductions were allowed per patient on study. The MTD was defined as the highest dose level at which no more than 1 in 6 patients experienced a DLT.
compound,measurement,setting,value
CC/C(=C(\c1ccc(O)cc1)c1ccc(OCCNC)cc1)c1ccccc1 [Z-endoxifen],"Anemia, grade 2","DL2 40 mg, n = 6",1 patients
same,"Elevated ALT, grade 2","DL2 40 mg, n = 6",1 patients
same,"Fatigue, grade 2","DL2 40 mg, n = 6",1 patients
same,"Lymphopenia, grade 2","DL2 40 mg, n = 6",3 patients
same,"Mucositis (oral), grade 2","DL2 40 mg, n = 6",1 patients
same,"Thromboembolic event, grade 2","DL2 40 mg, n = 6",1 patients
same,"Thromboembolic event, grade 4","DL2 40 mg, n = 6",1 patients
same,"Vestibular disorder, grade 2","DL2 40 mg, n = 6",1 patients
same,DLT,"DL2 (40 mg/day), patient 4",grade 4 pulmonary embolism
same,"Anemia, grade 2","DL3 60 mg, n = 3",1 patients
same,"Leukopenia, grade 2","DL3 60 mg, n = 3",1 patients
same,"Neutropenia, grade 2","DL3 60 mg, n = 3",1 patients
same,"Anemia, grade 2","DL4 100 mg, n = 3",1 patients
same,"Lymphopenia, grade 2","DL4 100 mg, n = 3",1 patients
same,"Fatigue, grade 2","DL5 140 mg, n = 3",1 patients
same,"Leukopenia, grade 2","DL5 140 mg, n = 3",1 patients
same,"Neutropenia, grade 2","DL5 140 mg, n = 3",1 patients
same,"Reflux, grade 2","DL5 140 mg, n = 3",1 patients
same,"Fatigue, grade 2","DL6 200 mg, n = 3",1 patients
same,"Hypertension, grade 2","DL6 200 mg, n = 3",1 patients
same,"Abdominal pain, grade 3","DL7 280 mg, n = 7",1 patients
same,"Anemia, grade 2","DL7 280 mg, n = 7",2 patients
same,"Diarrhea, grade 3","DL7 280 mg, n = 7",1 patients
same,"Elevated ALT, grade 2","DL7 280 mg, n = 7",1 patients
same,"Elevated ALT, grade 3","DL7 280 mg, n = 7",1 patients
same,"Elevated AST, grade 2","DL7 280 mg, n = 7",1 patients
same,"Fatigue, grade 2","DL7 280 mg, n = 7",1 patients
same,"Hypophosphatemia, grade 2","DL7 280 mg, n = 7",1 patients
same,"Hypophosphatemia, grade 4","DL7 280 mg, n = 7",1 patients
same,"Lymphopenia, grade 2","DL7 280 mg, n = 7",1 patients
same,DLT,"DL7 (280 mg/day), patient 22",grade 3 ALT elevation
same,"Anemia, grade 2","DL8 360 mg, n = 12",4 patients
same,"Anemia, grade 3","DL8 360 mg, n = 12",1 patients
same,"Colonic perforation, grade 4","DL8 360 mg, n = 12",1 patients
same,"Constipation, grade 2","DL8 360 mg, n = 12",1 patients
same,"Dehydration, grade 3","DL8 360 mg, n = 12",1 patients
same,"Dyspepsia, grade 2","DL8 360 mg, n = 12",1 patients
same,"Elevated ALT, grade 2","DL8 360 mg, n = 12",2 patients
same,"Elevated ALT, grade 3","DL8 360 mg, n = 12",1 patients
same,"Elevated AST, grade 2","DL8 360 mg, n = 12",1 patients
same,"Fatigue, grade 2","DL8 360 mg, n = 12",1 patients
same,"Hyponatremia, grade 3","DL8 360 mg, n = 12",1 patients
same,"Hypophosphatemia, grade 2","DL8 360 mg, n = 12",2 patients
same,"Hypophosphatemia, grade 3","DL8 360 mg, n = 12",2 patients
same,"Leukopenia, grade 2","DL8 360 mg, n = 12",1 patients
same,"Lymphopenia, grade 2","DL8 360 mg, n = 12",5 patients
same,"Lymphopenia, grade 3","DL8 360 mg, n = 12",1 patients
same,"Nausea, grade 2","DL8 360 mg, n = 12",1 patients
same,"Rash, grade 2","DL8 360 mg, n = 12",1 patients
same,"Stroke, grade 2","DL8 360 mg, n = 12",1 patients
same,"Thromboembolic event, grade 2","DL8 360 mg, n = 12",1 patients
same,"adverse event at end of cycle 1, disease most likely cause","DL8 (360 mg), patient with fallopian tube carcinoma",grade 4 colonic perforation
same,grade 4 adverse events potentially related to the study agent,all dose levels,Three grade 4 adverse events
same,"anemia, grade ≥ 2 (grades 2 and 3), study-related",of 40 patients enrolled,10 patients
same,"lymphopenia, grade ≥ 2 (grades 2 and 3), study-related",of 40 patients enrolled,11 patients
same,tolerability,"oral daily, 20-360 mg/day",generally well tolerated
same,maximum tolerated dose,"oral daily, up to 360 mg/day",No maximum tolerated dose was established
